Converted amounts (≈) assume the structure as drawn.
Experiments:
[1] = Solubility (physicochemical properties); settings: for Solubility in methanol, dimethyl sulfoxide (DMSO), and chloroform: organic solvents
[2] = system: edible oysters; settings: cited from earlier work
[3] = system: water fleas; settings: cited from earlier work
[4] = system: green algae; settings: cited from earlier work
[5] = system: Saprolegnia parasitica; test: Antimicrobial activity against eukaryotic microorganisms, 96-well microplate (MIC); assay type: cell-based; settings: GY medium, 18° C., 24 hours
Protocol: (§1) The activity against eukaryotic microorganisms was measured with a 96-well microplate in the following manner. Compound (I-1), (I0-B), (I0-C), (I0-D), or (I-2) was suspended in 8% methanol water to prepare a sample suspension having a concentration of 4000, 2000, 1000, 500, 250, 125, 62.5, 32, 16, 8, or 4 μg/mL. Pyceze was diluted with water to prepare Pyceze aqueous solutions having the above concentrations. 50 μl of each of the sample solutions having the above concentrations, 50 μl of sterilized 4-fold concentrated liquid medium, and 100 μl of spore suspension or bacterial suspension of the test organisms prepared beforehand were poured in each well of the 96-well microplate. The experiments were performed in duplicate. […] The test organisms and the culture conditions were as follows.
Saprolegnia parasitica: GY medium (glucose: 1%, yeast extract: 0.25%, pH: 6.5), 18° C., 24 hours;

[6] = system: Phoma sp.; test: as above; assay type: cell-based; settings: YPD medium, 30° C., 30 hours
Protocol: as §1
Phoma sp.: YPD medium (yeast extract: 1%, peptone: 2%, glucose: 2%, pH: 6.5), 30° C., 30 hours; and […]

[7] = system: Bacillus subtilis; test: Activity against prokaryotic microorganisms, paper disc method on agar plate; assay type: cell-based; settings: LB agar, 37° C. overnight, concentration of sample solution
Protocol: (§2) The activity against prokaryotic microorganisms was measured by the paper disc method on an agar plate medium into which test organisms were kneaded. Staphylococcus aureus, Bacillus subtilis, or Escherichia coli was inoculated in 3 mL of sterilized LB medium (glucose: 0.5%, polypeptone: 1%, yeast extract: 0.5%, NaCl: 0.5%, pH: 7.2) in a test tube, and cultured at 37° C. overnight. The pre-culture solution (1%) was inoculated in a sterilized LB agar medium (agar: 1.5%) to prepare an agar assay plate. Compound (I-1) or (I-2) was dissolved in methanol to prepare a sample solution having a concentration of 1000, 500, 250, 125, 62.5, 32, 16, 8, 4, 2, or 1 μg/mL. The sample solution was infiltrated into a paper disc (ADVANTEC, diameter: 8 mm, thick), followed by air-drying. The paper disc was placed on the agar assay plate, and cultured at 37° C. overnight.

[8] = system: Escherichia coli; test: as above; assay type: cell-based; settings: LB agar, 37° C. overnight
Protocol: as §2

[9] = system: Staphylococcus aureus; test: as above; assay type: cell-based; settings: LB agar, 37° C. overnight, concentration of sample solution
Protocol: as §2

[10] = system: water flea (Daphnia pulex); test: Water flea swimming ability inhibitory activity test; assay type: in vivo; settings: 24 hours incubation, 20° C.; probit method
Protocol: The number of water fleas was adjusted so that each 10 mL of aerated water contained 5 fleas. The water fleas were all 24 hours old after birth or younger. The aerated water was prepared by aerating tap water, which had been filtered by a water cleaner, for at least 24 hours. A sample solution obtained by dissolving Compound (I-1) or (I-2) in methanol, or a Pyceze aqueous solution obtained by diluting Pyceze with water, was added to the water flea breeding water under stirring so that the final concentration of the sample or Pyceze became 100, 10, 1, 0.1, or 0.01 μg/mL. After incubation for 24 hours (20° C., 17 μmol photons/m^2/s, Light:Dark=16:8), the number of water fleas swimming in the breeding water was counted. The water fleas were divided into multiple groups, each consisting of 5 fleas. Using 2 groups each, an experiment was performed with the test liquids having the aforementioned different final concentrations. From the obtained results, IC50 values were calculated according to the probit method using SPSS statistical software.

SMILES	Solubility in methanol, dimethyl sulfoxide (DMSO), and chloroform [1]	Solubility in water [1]	EC50 (toxicity) in edible oysters [2] [µg/mL]	EC50 (toxicity) in water fleas [3] [µg/mL]	EC50 (toxicity) in green algae [4] [µg/mL]	minimum inhibitory concentration (MIC) with respect to Saprolegnia parasitica [5] [µg/mL]	MIC with respect to Phoma sp. [6] [µg/mL]	minimum inhibitory concentration with respect to Bacillus subtilis [7] [µg/mL]	inhibition ring formation for Escherichia coli [8]	minimum inhibitory concentration with respect to Staphylococcus aureus [9] [µg/mL]	50% swimming ability inhibitory concentration with respect to water flea (Daphnia pulex) [10] [µg/mL]
CC1OC(OC2C(O)CC(c3ccc4c(c3O)C(=O)C3=C(C4=O)C4(O)C(=O)CC(C)(OC5C=CC(=O)C(C)O5)CC4(O)C=C3)OC2C)C=CC1=O (centres unmarked) [Compound I0-A]	Soluble	Slightly soluble									
CC1OC(OC2CCC(OC3C(O)CC(c4ccc5c(c4O)C(=O)C4=C(C5=O)C5(O)C(=O)CC(C)(OC6C=CC(=O)C(C)O6)CC5(O)C=C4)OC3C)OC2C)C=CC1=O (centres unmarked) [Compound I0-E]	Soluble	Slightly soluble									
O=[N+]([O-])C(Br)(CO)CO [bronopol]			0.77 (≈ 3.85 µM)	1.4 (≈ 7 µM)	0.0537 (≈ 0.269 µM)						
CC1OC(OC2CCC(OC3C(O)CC(c4ccc5c(c4O)C(=O)C4=C(C5=O)C5(O)C(=O)CC(C)(OC6C=CC(=O)C(C)O6)CC5(O)C=C4)OC3C)OC2C)C=CC1=O (centres unmarked) [Compound I-2]						0.0078	500	8.0	an inhibition ring was not observed	16.0	4.48
CC1OC(OC2C(O)CC(c3ccc4c(c3O)C(=O)C3=C(C4=O)C4(O)C(=O)CC(C)(OC5C=CC(=O)C(C)O5)CC4(O)C=C3)OC2C)C=CC1=O (centres unmarked) [Compound I-1]						0.0039	500	62.5	an inhibition ring was not observed	31.2	2.58
CC1OC(OC2CCC(OC3C(O)CC(c4ccc5c(c4O)C(=O)C4=C(C5=O)C5(O)C(=O)CC(C)(OC6CCC(=O)C(C)O6)CC5(O)C=C4)OC3C)OC2C)C=CC1=O (centres unmarked) [Compound I0-D]	Soluble	Slightly soluble				1	500	62.5	an inhibition ring was not observed	62.5	
